The values that follow come from publication PMC12202571, “Reversal of ABCG2-mediated drug resistance by tinodasertib (ETC-206)” (Frontiers in Pharmacology, 2025).

In data set [1] the target is T1, ABCG2 (Homo sapiens, UniProt Q9UNQ0).
T1 sequence (Q9UNQ0 1-655): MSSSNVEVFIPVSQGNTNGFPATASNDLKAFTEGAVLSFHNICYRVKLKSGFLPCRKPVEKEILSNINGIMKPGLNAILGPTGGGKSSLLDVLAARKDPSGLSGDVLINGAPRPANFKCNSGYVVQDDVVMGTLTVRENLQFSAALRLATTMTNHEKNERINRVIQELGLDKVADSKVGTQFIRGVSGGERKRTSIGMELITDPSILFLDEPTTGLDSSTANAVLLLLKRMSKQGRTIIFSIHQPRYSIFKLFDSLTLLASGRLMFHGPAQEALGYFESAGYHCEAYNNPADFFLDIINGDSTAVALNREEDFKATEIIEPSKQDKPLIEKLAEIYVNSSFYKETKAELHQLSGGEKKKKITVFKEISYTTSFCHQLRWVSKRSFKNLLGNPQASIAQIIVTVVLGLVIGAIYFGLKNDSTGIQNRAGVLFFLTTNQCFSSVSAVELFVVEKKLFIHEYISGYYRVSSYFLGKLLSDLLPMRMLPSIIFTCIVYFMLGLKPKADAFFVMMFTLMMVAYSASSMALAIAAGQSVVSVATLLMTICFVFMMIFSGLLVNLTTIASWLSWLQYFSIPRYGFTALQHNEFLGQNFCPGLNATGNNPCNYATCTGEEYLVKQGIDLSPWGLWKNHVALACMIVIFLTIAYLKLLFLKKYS

The target of data set [2] is T2, ABCG2 (Homo sapiens, UniProt Q9UNQ0).
T2 construct: ABCG2-containing membrane vesicles
Briefly: vanadate-sensitive ATPase assay in ABCG2 membrane vesicles (colorimetric phosphate); supported by [3H]-mitoxantrone efflux inhibition in cells. The format is biochemical.

`O=C1c2c(O)ccc(O)c2C(=O)c2c(NCCNCCO)ccc(NCCNCCO)c21` [mitoxantrone]: in data set [1], the “[3H]-mitoxantrone accumulation and efflux in ABCG2-overexpressing versus parenta” value was “Efflux assays demonstrated a substantial reduction in [^3H]-mitoxantrone efflux from ABCG2-overexpressing cells”.

A word on the IC50: it is the point on the concentration scale where inhibition reaches its midpoint. A higher IC50 goes with a need for much substance. As to `N#Cc1ccc(-c2cnc3ccc(-c4ccc(C(=O)N5CCOCC5)cc4)cn23)cc1` [tinodasertib], the IC50 in data set [2] was around 2 µM.
